Experimental findings from patent US8841321B2, “Quinoline derivatives as antibacterial agents” (Janssen Pharmaceutica NV, priority 2005, dated 2014) are described below.

Assay [1] concerns STA 29213 (Staphylococcus aureus (ATCC29213)). Description: Microtitre plate assay, IC90 determination. Format: cell-based. To be noted: for IC90 (μg/ml) STA 29213: Staphylococcus aureus (ATCC29213); for IC90: Staphylococcus aureus, ATCC29213, Staphylococcus aureus (ATCC29213), read-out: IC90 (μg/ml) STA 29213. The procedure:
(§1) The bacteria used in this study were grown overnight in flasks containing 100 ml Mueller-Hinton Broth (Becton Dickinson—cat. no. 275730) in sterile de-ionized water, with shaking, at 37° C. Stocks (0.5 ml/tube) were stored at −70° C. until use. Bacteria titrations were performed in microtiter plates and colony forming units (CFUs) were determined. In general, an inoculum level of approximately 100 CFUs was used for susceptibility testing.
(§2) Flat-bottom, sterile 96-well plastic microtiter plates were filled with 180 μl of sterile deionized water, supplemented with 0.25% BSA. Subsequently, stock solutions (7.8× final test concentration) of compounds were added in 45 μl volumes in column 2. Serial five-fold dilutions (45 μl in 180 μl) were made directly in the microtiter plates from column 2 to reach column 11. Untreated control samples with (column 1) and without (column 12) inoculum were included in each microtiter plate. Depending on the bacteria type, approximately 10 to 60 CFU per well of bacteria inoculum (100 TCID50), in a volume of 100 μl in 2.8× Mueller-Hinton broth medium, was added to the rows A to H, except column 12. The same volume of broth medium without inoculum was added to column 12 in row A to H. The cultures were incubated at 37° C. for 24 hours under a normal atmosphere (incubator with open air valve and continuous ventilation). At the end of incubation, one day after inoculation, the bacterial growth was quantitated fluorometrically. Therefore resazurin (0.6 mg/ml) was added in a volume of 20 μl to all wells 3 hours after inoculation, and the plates were re-incubated overnight. A change in colour from blue to pink indicated the growth of bacteria. The fluorescence was read in a computer-controlled fluorometer (Cytofluor Biosearch) at an excitation wavelength of 530 nm and an emission wavelength of 590 nm. The % growth inhibition achieved by the compounds was calculated according to standard methods. The IC90 (expressed in μg/ml) was defined as the 90% inhibitory concentration for bacterial growth.

The subject of assay [2] is SPN 6305 (Streptococcus pneumoniae (ATCC6305)). Description: Microtitre plate assay, IC90 determination. It counts as cell-based. To be noted: for IC90 (μg/ml) SPN 6305: Streptococcus pneumoniae (ATCC6305); for IC90: Streptococcus pneumoniae, ATCC6305, Streptococcus pneumoniae (ATCC6305), read-out: IC90 (μg/ml) SPN 6305. Here is the method: as §1, §2

≈ marks a conversion by molar mass, not a printed value.

`COc1ccc(C(c2cc3cc(Br)ccc3nc2OC)C(O)(CCCCN2CCCCC2)c2ccccc2)cc1` (single isomer, unassigned) [Compound 166]: in assay [1], the “IC90 (μg/ml) STA 29213” value worked out at 1.91 µg/mL (≈ 3.16 µM). For the same molecule, the “IC90 (μg/ml) SPN 6305” value in assay [2] was 1.91 µg/mL (≈ 3.16 µM).

Regarding `COc1ccc(C(c2cc3cc(Br)ccc3nc2OC)C(O)(CCCCN2CCCCC2)c2ccc(C)cc2)cc1` (single isomer, unassigned) [Compound 167], in assay [1], the “IC90 (μg/ml) STA 29213” value was 1.95 µg/mL (≈ 3.16 µM). The “IC90 (μg/ml) SPN 6305” value in assay [2] turned out to be 2.19 µg/mL (≈ 3.55 µM).

Turning to `COc1ccc(C(c2cc3cc(Br)ccc3nc2OC)C(O)(CCCCN2CCCCC2)c2ccc(OC)cc2)cc1` (single isomer, unassigned) [Compound 169], the “IC90 (μg/ml) STA 29213” value in assay [1] was 4 µg/mL (≈ 6.31 µM). Further, in assay [2], the “IC90 (μg/ml) SPN 6305” value worked out at 2.52 µg/mL (≈ 3.98 µM).

Take `COc1nc2ccc(Br)cc2cc1C(c1ccc(Cl)cc1)C(O)(CCCCN1CCCCC1)c1ccc(C)cc1` (single isomer, unassigned) [Compound 171]: in assay [1], the “IC90 (μg/ml) STA 29213” value worked out at 22.07 µg/mL (≈ 35.5 µM). Further, the “IC90 (μg/ml) SPN 6305” value in assay [2] was found to be 4.94 µg/mL (≈ 7.94 µM).

Regarding `COc1nc2ccc(Br)cc2cc1C(c1ccc(Cl)c(Cl)c1)C(O)(CCCCN1CCCCC1)c1ccccc1` (single isomer, unassigned) [Compound 172], the “IC90 (μg/ml) STA 29213” value in assay [1] amounted to 2.03 µg/mL (≈ 3.16 µM). Besides, in assay [2], the “IC90 (μg/ml) SPN 6305” value came to 2.28 µg/mL (≈ 3.55 µM).

In the case of `COc1nc2ccc(Br)cc2cc1C(c1ccc(Cl)cc1)C(O)(CCCCN1CCN(C)CC1)CCC1CCCCC1` (single isomer, unassigned) [Compound 174], the “IC90 (μg/ml) STA 29213” value in assay [1] was 10.41 µg/mL (≈ 15.8 µM). In addition, in assay [2], the “IC90 (μg/ml) SPN 6305” value was 8.27 µg/mL (≈ 12.6 µM).

Take `COc1nc2ccc(Br)cc2cc1C(c1ccccc1)C(O)(CCCCN(C)C)c1ccc2c(c1)OCO2` (stereo not drawn) [Compound 10]: the values for the IC90 in assay [1] and in assay [2] were 11.5 µg/mL (≈ 19.9 µM) and 10.3 µg/mL (≈ 17.8 µM), respectively.

With `COc1nc2ccc(Br)cc2cc1C(c1ccccc1)C(O)(CCCCN(C)C)c1cc(F)cc(F)c1` (stereo not drawn) [Compound 12], the “IC90 (μg/ml) STA 29213” value in assay [1] was 45.2 µg/mL (≈ 79.4 µM). Moreover, in assay [2], the “IC90 (μg/ml) SPN 6305” value is 11.4 µg/mL (≈ 20 µM).

Turning to `COc1nc2ccc(Br)cc2cc1C(c1ccccc1)C(O)(CCCCN(C)C)c1cc(F)ccc1F` (stereo not drawn) [Compound 14], in assay [1], the IC90 was found to be 14.3 µg/mL (≈ 25.1 µM). Besides, the “IC90 (μg/ml) SPN 6305” value in assay [2] is 57.0 µg/mL (≈ 100 µM).

`COc1nc2ccc(Br)cc2cc1C(c1ccccc1)C(O)(CCCCN(C)C)c1cccnc1` (stereo not drawn) [Compound 16]: in assay [1], the “IC90 (μg/ml) STA 29213” value stood at 8.5 µg/mL (≈ 15.9 µM). Besides, in assay [2], the “IC90 (μg/ml) SPN 6305” value is 8.5 µg/mL (≈ 15.9 µM).

On to `COc1nc2ccc(Br)cc2cc1C(c1ccccc1)C(O)(CCCCCN(C)C)c1ccc2ccccc2c1` (stereo not drawn) [Compound 58], for which the “IC90 (μg/ml) STA 29213” value in assay [1] was found to be 4.2 µg/mL (≈ 7.03 µM). In addition, the “IC90 (μg/ml) SPN 6305” value in assay [2] came out at 1.9 µg/mL (≈ 3.18 µM).

Regarding `COc1nc2ccccc2cc1C(c1ccc(Br)cc1)C(O)(CCCCN(C)C)c1ccc2ccccc2c1` (stereo not drawn) [Compound 63], the IC90 is 1.85 µg/mL (≈ 3.17 µM) in assay [1] and 2.32 µg/mL (≈ 3.98 µM) in assay [2].

As to `COc1nc2ccccc2cc1C(c1ccc(Br)cc1)C(O)(CCCCN(C)C)c1ccc2ccccc2c1` (stereo not drawn) [Compound 65], the “IC90 (μg/ml) STA 29213” value in assay [1] came to 1.85 µg/mL (≈ 3.17 µM). In addition, the “IC90 (μg/ml) SPN 6305” value in assay [2] came out at 2.32 µg/mL (≈ 3.98 µM).

`COc1nc2ccccc2cc1C(c1ccc(Br)cc1)C(O)(CCCCN(C)C)c1ccc2ccccc2c1` (stereo not drawn) [Compound 66]: in assay [1], the “IC90 (μg/ml) STA 29213” value came out at 1.85 µg/mL (≈ 3.17 µM). For the same molecule, the “IC90 (μg/ml) SPN 6305” value in assay [2] was found to be 1.85 µg/mL (≈ 3.17 µM).

On to `COc1nc2ccccc2cc1C(c1ccc(-c2ccccc2)cc1)C(O)(CCCCN(C)C)c1ccc2ccccc2c1` (stereo not drawn) [Compound 175], for which the “IC90 (μg/ml) STA 29213” value in assay [1] turned out to be 1.84 µg/mL (≈ 3.17 µM). Moreover, the “IC90 (μg/ml) SPN 6305” value in assay [2] came out at 2.06 µg/mL (≈ 3.55 µM).

Take `COc1nc2ccccc2cc1C(c1ccc(-c2ccccc2)cc1)C(O)(CCCCN(C)C)c1ccc2ccccc2c1` (stereo not drawn) [Compound 176]: in assay [1], the “IC90 (μg/ml) STA 29213” value was determined as 1.84 µg/mL (≈ 3.17 µM). For the same molecule, the “IC90 (μg/ml) SPN 6305” value in assay [2] stood at 2.06 µg/mL (≈ 3.55 µM).

`CN(C)CCCCC(O)(c1ccc2ccccc2c1)C(c1ccccc1)c1cc2cc(Br)ccc2nc1N1CCOCC1` (stereo not drawn) [Compound 177]: the “IC90 (μg/ml) STA 29213” value in assay [1] amounted to 4.52 µg/mL (≈ 7.08 µM). The “IC90 (μg/ml) SPN 6305” value in assay [2] was determined as 4.52 µg/mL (≈ 7.08 µM).

On to `CN(C)CCCCC(O)(c1ccc2ccccc2c1)C(c1ccccc1)c1cc2cc(Br)ccc2nc1N1CCOCC1` (stereo not drawn) [Compound 178], for which the “IC90 (μg/ml) STA 29213” value in assay [1] worked out at 2.02 µg/mL (≈ 3.16 µM). Also, the IC90 in assay [2] came to 2.27 µg/mL (≈ 3.55 µM).
